Laboratory results taken from US5677282A (Proscript, Inc., priority 1995, dated 1997).

Target: stromelysin (Homo sapiens, UniProt P08254)
Assay: Assay of stromelysin inhibition activity (fluorogenic coumarin peptide substrate)
Format: biochemical
Conditions: trypsin-activated stromelysin 2 nM, H-150 buffer pH 7.4, room temperature; read-out: Ki(app)
Procedure: Stromelysin was first activated with trypsin. This was done by preparing a reaction mixture in H-150 (H-150 consists of 10 mM CaCl2, 150 mM NaCl and 100 mM HEPES at pH 7.4) containing a final concentration of 25 μg/mL trypsin and 2.2 μM of stromelysin (Marcy et al., Biochemistry,30:6476 (1991); Koklitis et al., Biochem. J., 376:217 (1991). The reaction was incubated for 30 minutes at 37° C. and then quenched by adding trypsin inhibitor agarose to the reaction mixture at a 20 fold excess with respect to trypsin.
The reaction mixture was centrifuged at 14,000 rpm (16,000 ×g) for 30 minutes using an Eppendorf Centrifuge 5415C. The supernant, which contains activated stromelysin, was concentrated with a Centricon 10 (5000 g, 1 hour). A sample was analyzed by Bradford total protein assay and 12% SDS polyacrylamide gel electrophoresis.
All steps of the stromelysin inhibition assay were performed at room temperature. Assay solutions were prepared for each inhibitor tested. Activated stromelysin was added to a stirred covelte to a final concentration of 2 nM in 2 mL of H-150 buffer. 4 μL 5 mM coumarin peptide substrate was dissolved in DMSO and the initial rate of hydrolysis was measured for 100-200 seconds.
Substrate hydrolysis was assessed by fluorescence using a slit width of 10:10, excitation at 328 nm and emission at 393 nm. Ki was calculated based on the assumption of simple competitive inhibition and a substrate concentration much less than Km. 2 μL of 10 mM inhibitor in DMSO was added and the reduction in hydrolysis rate measured. The addition of 2 μL of inhibitor was continued until a 30-70% inhibition was observed.

Sequence of stromelysin (P08254 100-477): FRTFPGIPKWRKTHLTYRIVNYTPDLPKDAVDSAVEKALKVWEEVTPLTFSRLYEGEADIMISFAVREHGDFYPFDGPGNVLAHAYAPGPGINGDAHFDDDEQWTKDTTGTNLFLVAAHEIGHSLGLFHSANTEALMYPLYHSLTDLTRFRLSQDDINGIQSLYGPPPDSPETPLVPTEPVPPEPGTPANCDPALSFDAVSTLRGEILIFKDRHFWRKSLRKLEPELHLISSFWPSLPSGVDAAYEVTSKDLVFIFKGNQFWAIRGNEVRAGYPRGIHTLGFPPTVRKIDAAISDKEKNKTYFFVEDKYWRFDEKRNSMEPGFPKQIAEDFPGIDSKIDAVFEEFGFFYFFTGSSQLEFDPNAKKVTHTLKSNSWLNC

Ki [nM] | SMILES
205 | O=C(N[C@@H](Cc1ccc(N(Cc2ccccc2)Cc2ccccc2)cc1)C(=O)NC(C(=O)Nc1n[nH]c(=S)s1)c1ccccc1)OCc1ccccc1 (some centres unmarked) [5(N-benzyloxycarbonyl-(N',N'-dibenzylamino)phenylalanine-phepylglycylamino)-1,3,4-thiadiazole-2-thione]
195 | CSCC[C@H](NC(=O)OCC1c2ccccc2-c2ccccc21)C(=O)Nc1n[nH]c(=S)s1 [5-(N-9-fluorenylmethoxycarbonyl)methionylamino)-1,3,4-thiadiazole-2-thione]
917 | CSc1ncccc1C(=O)NC(Cc1ccccc1)C(=O)NC(C(=O)Nc1n[nH]c(=S)s1)C(C)C (centres unmarked) [5-(N-(2-methylthionicotyl)phenylalanyl-valyamino)-1,3,4-thiadiazole-2-thione]
61 | CC(C)C(NC(=O)C(Cc1ccccc1)NC(=O)c1ccc(OCc2ccccc2)cc1)C(=O)Nc1n[nH]c(=S)s1 (centres unmarked) [5-(N-(4-benzyloxy)benzoyl-phenylalanyl-valylamino)-1,3,4-thiadiazole-2-thione]
531 | CC(C)[C@H](NC(=O)[C@H](Cc1ccccc1)NS(=O)(=O)c1cccc2cccnc12)C(=O)Nc1n[nH]c(=S)s1 [5-(N-(8-quinolinesulfonyl)phenylalanyl-valylamino-1,3,4-thiadiazole-2-thione]
184 | CC(C)C[C@H](NC(=O)OCC1c2ccccc2-c2ccccc21)C(=O)Nc1n[nH]c(=S)s1 [5-(N-(9-fluorenylmethoxycarbonyl)leucylamino)-1,3,4-thiadiazole-2-thione]
341 | O=C(N[C@@H](Cc1c[nH]c2ccccc12)C(=O)Nc1n[nH]c(=S)s1)OCC1c2ccccc2-c2ccccc21 [5-(N-(9-fluorenylmethoxycarbonyl)tryptonylamino)-1,3,4-thiadiazole-2-thione]
509 | CCCC(NC(=O)OCC1c2ccccc2-c2ccccc21)C(=O)Nc1n[nH]c(=S)s1 (centres unmarked) [5-(N-(9-fluorenylmethoxycarbonyl-norvalyl)-1,3,4-thiadiazole-2-thione]
633 | CC(C)[C@H](NC(=O)[C@H](Cc1ccccc1F)NC(=O)OCc1ccccc1)C(=O)Nc1n[nH]c(=S)s1 [5-(N-Benzyloxycarbonyl-(2-flouro)phenyl-valylamino)-1,3,4-thiadiazole-2-thione]
940 | CC[C@H](C)[C@H](NC(=O)OCc1ccccc1)C(=O)N[C@H](C(=O)Nc1n[nH]c(=S)s1)C(C)C [5-(N-Benzyloxycarbonyl-isoleucyl-valylamino)-1,3,4-thiadiazole-2-thione]
6440 | CC(=O)N[C@@H](CC(C)C)C(=O)N[C@@H](CC(C)C)C(=O)Nc1n[nH]c(=S)s1 [5-(N-acetyl-leucyl-leucylamino)-1,3,4-thiadiazole-2-thione]
62 | CC(C)C(NC(=O)C(Cc1ccc(OCc2ccc3ccccc3c2)cc1)NC(=O)OCc1ccccc1)C(=O)Nc1n[nH]c(=S)s1 (centres unmarked) [5-(N-benzyloxycarbonyl((O-methylene-2-naphthyl)tyrosyl)-valylamino)-1,3,4-thiadiazole-2-thione]
156 | CC(C)[C@H](NC(=O)[C@H](Cc1ccc(F)cc1)NC(=O)OCc1ccccc1)C(=O)Nc1n[nH]c(=S)s1 [5-(N-benzyloxycarbonyl(para-F)phenylalanyl-valylamino)-1,3,4-thiadiazole-2-thione]
221 | CC(C)[C@H](NC(=O)[C@H](Cc1ccc2ccccc2c1)NC(=O)OCc1ccccc1)C(=O)Nc1n[nH]c(=S)s1 [5-(N-benzyloxycarbonyl-(2-(2-naphthyl)alanyl-valylamino)-1,3,4-thiadiazole-2-thione]
50 | O=C(CC[C@H](NC(=O)OCc1ccccc1)C(=O)NC(C(=O)Nc1n[nH]c(=S)s1)c1ccccc1)NC(c1ccccc1)(c1ccccc1)c1ccccc1 (some centres unmarked) [5-(N-benzyloxycarbonyl-((γ-N-trityl)glutamyl)-phenylglycylamino)-1,3,4-thiadiazole-2-thione]
236 | CC(C)[C@H](NC(=O)[C@H](COCc1ccccc1)NC(=O)OCc1ccccc1)C(=O)Nc1n[nH]c(=S)s1 [5-(N-benzyloxycarbonyl-(O-benzyl)seryl-valylamino)-1,3,4-thiadiazole-2-thione]
630 | O=C(N[C@@H](Cc1ccccc1F)C(=O)Nc1n[nH]c(=S)s1)OCc1ccccc1 [5-(N-benzyloxycarbonyl-(ortho-fluoro)phenylalanylamino)-1,3,4-thiadiazole-2-thione]
19 | O=C(NC(CCC(=O)N(Cc1ccccc1)Cc1ccccc1)C(=O)NC(C(=O)Nc1n[nH]c(=S)s1)c1ccccc1)OCc1ccccc1 (centres unmarked) [5-(N-benzyloxycarbonyl-(γ-N,N-dibenzyl)glutamyl-phenylglycylamino)-1,3,4-thiadiazole2-thione]
490 | CSCC[C@H](NC(=O)[C@H](CC(C)C)NC(=O)OCc1ccccc1)C(=O)Nc1n[nH]c(=S)s1 [5-(N-benzyloxycarbonyl-leucyl-methionylamino)-1,3,4-thiadiazole-2-thione]
1300 | CC(C)C[C@H](NC(=O)OCc1ccccc1)C(=O)N[C@@H](Cc1ccc(O)cc1)C(=O)Nc1n[nH]c(=S)s1 [5-(N-benzyloxycarbonyl-leucyl-tyrosylamino-1,3,4-thiadiazole-2-thione]
660 | CC(C)C[C@H](NC(=O)OCc1ccccc1)C(=O)N[C@H](C(=O)Nc1n[nH]c(=S)s1)C(C)C [5-(N-benzyloxycarbonyl-leucyl-valylamino)-1,3,4-thiadiazole-2-thione]
148 | CC(C)(C)OC(=O)NCCCC[C@H](NC(=O)OCc1ccccc1)C(=O)N[C@@H](Cc1ccc(OCc2ccccc2)cc1)C(=O)NC(C(=O)Nc1n[nH]c(=S)s1)c1ccccc1 (some centres unmarked) [5-(N-benzyloxycarbonyl-lysyl(N-ε-t-butyloxycarbonyl)-tyrosyl(O-benzyl)-phenylglycylamino-1,3,4-thiadiazole-2-thione]
3950 | O=C(CNC(=O)[C@H](Cc1ccccc1)NC(=O)OCc1ccccc1)Nc1n[nH]c(=S)s1 [5-(N-benzyloxycarbonyl-phenylalanyl-glycylamino)-1,3,4-thiadiazole-2-thione]
273 | CC(C)[C@H](NC(=O)[C@H](Cc1ccccc1)NC(=O)OCc1ccccc1)C(=O)N[C@@H](Cc1c[nH]c2ccccc12)C(=O)Nc1n[nH]c(=S)s1 [5-(N-benzyloxycarbonyl-phenylalanyl-valyl-tryptonylamino)-1,3,4-thiadiazole-2-thione]
2360 | O=C(N[C@@H](Cc1ccccc1)C(=O)Nc1n[nH]c(=S)s1)OCc1ccccc1 [5-(N-benzyloxycarbonyl-phenylalanylamino)-1,3,4-thiadiazole-2-thione]
1740 | CC(C)C[C@H](NC(=O)[C@@H]1CCCN1C(=O)OCc1ccccc1)C(=O)N[C@@H](C)C(=O)Nc1n[nH]c(=S)s1 [5-(N-benzyloxycarbonyl-prolyl-leucyl-alanylamino)-1,3,4-thiadiazole-2-thione]
3370 | O=C(N[C@@H](Cc1c[nH]c2ccccc12)C(=O)Nc1n[nH]c(=S)s1)OCc1ccccc1 [5-(N-benzyloxycarbonyl-tryptonylamino)-1,3,4-thiadiazole-2-thione]
741 | CC(C)[C@H](NC(=O)[C@H](Cc1c[nH]c2ccccc12)NC(=O)OCc1ccccc1)C(=O)Nc1n[nH]c(=S)s1 [5-(N-benzyloxycarbonyl-tryptoyl-valylamino)-1,3,4-thiadiazole-2-thione]
267 | CC(C)[C@H](NC(=O)[C@H](Cc1ccccc1)NC(=O)CCc1ccccc1)C(=O)Nc1n[nH]c(=S)s1 [5-(N-hydrocinamoyl-phenylalanyl-valylamino-1,3,4-thiadiazole-2-thione]
83 | CCCCCCCCC(=O)N[C@@H](Cc1ccccc1)C(=O)N[C@H](C(=O)Nc1n[nH]c(=S)s1)C(C)C [5-(N-nonanoyl-phenylalanyl-valylamino)-1,3,4-thiadiazole-2-thione]

SMILES | Ki [nM]
CC(C)[C@H](NC(=O)[C@H](Cc1cccc2ccccc12)NC(=O)OCc1ccccc1)C(=O)Nc1n[nH]c(=S)s1 | 190
CC(C)[C@H](NC(=O)[C@H](Cc1cc(I)c(O)c(I)c1)NC(=O)OCc1ccccc1)C(=O)Nc1n[nH]c(=S)s1 | 97
CC(C)(C)[C@H](NC(=O)[C@H](Cc1ccc(OCc2ccccc2)cc1)NC(=O)OCc1ccccc1)C(=O)Nc1n[nH]c(=S)s1 | 89
O=C(N[C@@H](Cc1ccc(OCc2ccccc2)cc1)C(=O)N[C@H](C(=O)Nc1n[nH]c(=S)s1)C1CCCCC1)OCc1ccccc1 | 71
CC(C)[C@H](NC(=O)[C@@H](NC(=O)OCc1ccccc1)C1CCCCC1)C(=O)Nc1n[nH]c(=S)s1 | 180
NCCCC[C@H](NC(=O)OCc1ccccc1)C(=O)N[C@@H](Cc1ccc(OCc2ccccc2)cc1)C(=O)N[C@H](C(=O)Nc1n[nH]c(=S)s1)c1ccccc1 | 1890
CC(C)(NC(=O)C(Cc1ccc(OCc2ccccc2)cc1)NC(=O)OCc1ccccc1)C(=O)Nc1n[nH]c(=S)s1 (centres unmarked) [5-(N-benzyloxycarbonyl-((O-benzyl)tyrosyl)-amino-isobutyroylamino)-1,3,4-thiadiazole-2-thione] | 237
CC(C)(C)OC(=O)N[C@@H](CCc1ccccc1)C(=O)Nc1n[nH]c(=S)s1 [5-(N-t-butoxycarbonyl-homophenylalanylamino)-1,3,4-thiadiazole-2-thione] | 11900
